Experiment [1] deals with T1, system Xc^− (Homo sapiens, UniProt Q9UPY5).
T1 sequence (Q9UPY5 1-501): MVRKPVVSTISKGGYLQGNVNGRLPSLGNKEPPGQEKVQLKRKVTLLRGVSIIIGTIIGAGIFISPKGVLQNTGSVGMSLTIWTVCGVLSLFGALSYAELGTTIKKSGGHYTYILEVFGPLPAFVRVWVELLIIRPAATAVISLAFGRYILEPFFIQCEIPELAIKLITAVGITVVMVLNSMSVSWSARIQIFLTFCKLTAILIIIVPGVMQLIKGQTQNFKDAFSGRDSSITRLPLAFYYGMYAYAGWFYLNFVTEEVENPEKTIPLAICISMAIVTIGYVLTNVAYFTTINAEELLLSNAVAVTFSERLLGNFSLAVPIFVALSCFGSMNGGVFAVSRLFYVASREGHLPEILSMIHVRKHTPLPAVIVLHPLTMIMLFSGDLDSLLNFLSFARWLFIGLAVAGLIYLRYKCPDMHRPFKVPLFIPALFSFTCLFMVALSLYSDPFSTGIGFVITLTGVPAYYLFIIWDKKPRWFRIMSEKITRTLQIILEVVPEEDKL
T1 sequence (P08195 1-529 partner): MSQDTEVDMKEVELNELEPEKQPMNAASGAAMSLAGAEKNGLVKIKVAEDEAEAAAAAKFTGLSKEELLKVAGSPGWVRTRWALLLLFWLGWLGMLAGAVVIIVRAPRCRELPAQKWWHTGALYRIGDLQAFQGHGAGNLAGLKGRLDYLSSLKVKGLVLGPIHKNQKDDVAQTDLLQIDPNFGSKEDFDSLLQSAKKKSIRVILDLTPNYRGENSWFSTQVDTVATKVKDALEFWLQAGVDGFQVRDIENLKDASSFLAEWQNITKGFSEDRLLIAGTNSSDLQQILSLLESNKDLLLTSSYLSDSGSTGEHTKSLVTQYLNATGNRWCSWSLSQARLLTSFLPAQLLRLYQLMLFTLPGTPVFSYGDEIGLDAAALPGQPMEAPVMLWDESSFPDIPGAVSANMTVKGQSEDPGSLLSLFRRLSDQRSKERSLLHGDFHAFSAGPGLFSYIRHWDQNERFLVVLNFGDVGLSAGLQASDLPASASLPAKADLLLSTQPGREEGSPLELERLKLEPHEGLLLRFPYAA
Nature of the experiment: [^14C]L-Cystine uptake assay. In kind it is cell-based. Also on record: endogenous in cells; host or cells: H4 cells. As to conditions: H4 cells, sodium-free HEPES buffer, 0.5 μM L-[14C]Cystine and 4.5 μM L-Cystine, 1 hour at 37° C.; read-out: pIC50 [^14C] L-Cystine uptake assay (converted). The method, boiled down:
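H4 cells at 5×10^4 cells/well in sodium-free HEPES buffer were preincubated 15 min with compounds (1% DMSO). Uptake of 0.5 μM [14C]L-cystine plus 4.5 μM unlabelled L-cystine ran 1 hour at 37° C on scintillating plates. IC50 was set between 1% DMSO and 50 μM Erastin controls and expressed as pIC50.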

For experiment [2], the target named is T1, system Xc^−. Nature of the experiment: Cystine-induced glutamate release assay. In kind it is cell-based. Further details: endogenous in cells; host or cells: H4 cells. Particulars: H4 cells, sodium-free HEPES buffer, 50 μM L-Cystine, 2 hours, Amplex Red glutamate readout; read-out: pIC50 Cystine-induced glutamate release assay (converted). The essentials: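 H4 cells in sodium-free HEPES buffer (pH 7.4), 2 days after plating; glutamate release induced with 50 μM L-cystine plus compound (1% DMSO), 2 h at 37 °C. Supernatant glutamate measured by Amplex Red fluorescence; IC50/pIC50 derived between 1% DMSO and 50 μM erastin controls.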

For the compound `O=C(CN1C(=O)Cc2sccc2-c2cnc(Cl)cc21)Nc1ccc(C(F)(F)F)cc1` [#26, 2-(12-chloro-8-oxo-5-thia-9,13-diazatricyclo[8.4.0.0^2,6]tetradeca-1(10),2(6),3,11,13-pentaen-9-yl)-N-[4-(trifluoromethyl)phenyl]acetamide], the IC50 is 39.8 to 100 nM at system Xc^− [1] and 100 to 501 nM at system Xc^− [2].

As to `Cc1cc2c(c(=O)o1)-c1ccccc1C(C)C(=O)N2CC(=O)Nc1ccc(C(F)F)cc1` (single isomer, unassigned) [#359, N-[4-(difluoromethyl)phenyl]-2-[3,7-dimethyl-1,6-dioxo-7H-pyrano[4,3-d][3]benzazepin-5-yl]acetamide], the IC50 on system Xc^− [1] and on system Xc^− [2] was 15.8 to 39.8 nM throughout.

With `Cc1cc2c(c(F)n1)-c1ccn(C)c(=O)c1C(C)C(=O)N2CC(=O)Nc1ccc(Cl)c(F)c1` (centres unmarked) [#356, N-(4-chloro-3-fluoro-phenyl)-2-(3-fluoro-5,10,13-trimethyl-9,12-dioxo-4,8,13-triazatricyclo[9.4.0.0^2,7]pentadeca-1(11),2,4,6,14-pentaen-8-yl)acetamide], the IC50 at system Xc^− [1] and at system Xc^− [2] was 39.8 to 100 nM throughout.

Turning to `O=C(CN1C(=O)Cc2ccccc2-c2cnc(Cl)cc21)Nc1ccc(C(F)(F)F)cc1` [#13, 2-(3-chloro-6-oxo-7H-pyrido[4,3-d][3]benzazepin-5-yl)-N-[4-(trifluoromethyl)phenyl]acetamide], the IC50 is 39.8 to 100 nM on system Xc^− [1] and 100 to 501 nM at system Xc^− [2].

`Cc1cc2c(c(F)n1)-c1cncnc1C(C)C(=O)N2CC(=O)Nc1ccc(C(F)F)cc1` (single isomer, unassigned) [#218, Enantiomer (8S) or (8S) of (N-[4-(difluoromethyl)phenyl]-2-[15-fluoro-8,13-dimethyl-9-oxo-4,6,10,14-tetrazatricyclo[9.4.0.0^2,7]pentadeca-1(15),2,4,6,11,13-hexaen-10-yl]acetamide]: the IC50 at system Xc^− [1] is 100 to 501 nM; at system Xc^− [2], 15.8 to 39.8 nM.

For `CC1C(=O)N(CC(=O)Nc2ccc(Cl)c(F)c2)c2ccnc(OC(F)F)c2-c2cccnc21` (centres unmarked) [#412, N-(4-chloro-3-fluoro-phenyl)-2-[3-(difluoromethoxy)-10-methyl-9-oxo-4,8,12-triazatricyclo[9.4.0.0^2,7]pentadeca-1(15),2,4,6,11,13-hexaen-8-yl]acetamide], the IC50 at system Xc^− [1] and on system Xc^− [2] was 39.8 to 100 nM each time.

Consider `CC1C(=O)N(CC(=O)Nc2ccc(Cl)c(F)c2)c2cc(Cl)cc(F)c2-c2cncnc21` (single isomer, unassigned) [#314, 2-[9-chloro-11-fluoro-5-methyl-6-oxo-5H-pyrimido[4,5-d][1]benzazepin-7-yl]-N-(4-chloro-3-fluoro-phenyl)acetamide], for which the IC50 on system Xc^− [1] was less than 15.8 nM; on system Xc^− [2] it was 15.8 to 39.8 nM.

For the compound `Cc1cc2c(c(=O)n1C)-c1ccc(Cl)cc1C(C)C(=O)N2CC(=O)Nc1ccc(Cl)c(F)c1` (centres unmarked) [#352, N-(4-chloro-3-fluoro-phenyl)-2-(9-chloro-2,3,7-trimethyl-1,6-dioxo-7H-pyrido[4,3-d][3]benzazepin-5-yl)acetamide], the IC50 on system Xc^− [1] is less than 15.8 nM; at system Xc^− [2] it was 15.8 to 39.8 nM.

Take `Cc1cc2c(c(Cl)n1)-c1cccnc1C(O)C(=O)N2CC(=O)Nc1ccc(C(F)(F)F)cc1` (centres unmarked) [#379, 2-(3-chloro-10-hydroxy-5-methyl-9-oxo-4,8,12-triazatricyclo[9.4.0.0^2,7]pentadeca-1(15),2(7),3,5,11,13-hexaen-8-yl)-N-[4-(trifluoromethyl)phenyl]acetamide]: the IC50 is less than 15.8 nM on system Xc^− [1] and 15.8 to 39.8 nM at system Xc^− [2].

As for `Cc1cc2c(cn1)-c1cccc(Cl)c1CC(=O)N2CC(=O)Nc1ccc(C(F)(F)F)cc1` [#31, 2-(8-chloro-3-meth-yl-6-oxo-7H-pyrido [4,3-d][3]benzaze-pin-5-yl)-N-[4-(trifluoromethyl)-phenyl]acetamide], the IC50 on system Xc^− [1] was 15.8 to 39.8 nM; on system Xc^− [2], 100 to 501 nM.

For the compound `Cc1cc2c(c(F)n1)-c1cccnc1[C@@H](C)C(=O)N2CC(=O)Nc1ccc(C(C)(F)F)cc1` [#149, N-[4-(1,1-difluoroethyl)phenyl]-2-[(10R)-3-fluoro-5,10-dimethyl-9-oxo-4,8,12-triazatricyclo[9.4.0.0^2,7]pentadeca-1(11),2(7),3,5,12,14-hexaen-8-yl]acetamide], the IC50 at system Xc^− [1] was less than 15.8 nM; on system Xc^− [2] it was 15.8 to 39.8 nM.

On to `CC1C(=O)N(CC(=O)Nc2ccc(Cl)c(F)c2)c2cc(C3CN(CC(F)F)C3)cc(F)c2-c2cccnc21` (centres unmarked) [#345, N-(4-chloro-3-fluoro-phenyl)-2-[9-[1-(2,2-difluoroethyl)azetidin-3-yl]-11-fluoro-5-methyl-6-oxo-5H-pyrido[2,3-d][1]benzazepin-7-yl]acetamide], for which the IC50 on system Xc^− [1] and at system Xc^− [2] was 15.8 to 39.8 nM throughout.

As for `Cc1cc2c(c(=O)n1C)-c1cncnc1C(C)C(=O)N2CC(=O)Nc1ccc(C(F)F)cc1` (single isomer, unassigned) [#367, N-[4-(difluoromethyl)phenyl]-2-[8,13,14-trimethyl-9,15-dioxo-4,6,10,14-tetrazatricyclo[9.4.0.0^2,7]pentadeca-1(11),2(7),3,5,12-pentaen-10-yl]acetamide], the IC50 at system Xc^− [1] and on system Xc^− [2] was 15.8 to 39.8 nM each time.

As for `Cc1cc2c(c(F)n1)-c1cccnc1C(C)C(=O)N2CC(=O)Nc1ccc(Cl)c(F)c1` (centres unmarked) [#90, N-(4-chloro-3-fluoro-phenyl)-2-(3-fluoro-5,10-dimethyl-9-oxo-4,8,12-triazatricyclo[9.4.0.0^2,7]pentadeca-1(11),2(7),3,5,12,14-hexaen-8-yl)acetamide], the IC50 was less than 15.8 nM on system Xc^− [1] and 15.8 to 39.8 nM at system Xc^− [2].

In the case of `N#Cc1ccc2c(c1F)-c1cccnc1CC(=O)N2CC(=O)Nc1ccc(C(F)(F)F)cc1` [#54, 2-(10-cyano-11-fluoro-6-oxo-5H-pyrido[2,3-d][1]benzazepin-7-yl)-N-[4-(trifluoromethyl)-phenyl]acetamide], the IC50 was 39.8 to 100 nM at system Xc^− [1] and 100 to 501 nM on system Xc^− [2].

Consider `Cc1cc2c(c(F)n1)-c1cccnc1[C@@H](C)C(=O)N2CC(=O)Nc1ccc2c(cnn2C(F)F)c1` [#148, N-[1-(difluoromethyl)indazol-5-yl]-2-[(10R)-3-fluoro-5,10-dimethyl-9-oxo-4,8,12-triazatricyclo[9.4.0.0^2,7]pentadeca-1(11),2(7),3,5,12,14-hexaen-8-yl]acetamide], for which the IC50 at system Xc^− [1] is 15.8 to 39.8 nM; at system Xc^− [2] it was 39.8 to 100 nM.

For `Cc1cc2c(c(F)n1)-c1cncc(F)c1C(C)C(=O)N2CC(=O)Nc1ccc(C(F)(F)F)cc1` (centres unmarked) [#171, 2-(3,12-difluoro-5,10-dimethyl-9-oxo-4,8,14-triazatricyclo[9.4.0.0^2,7]pentadeca-1(11),2(7),3,5,12,14-hexaen-8-yl)-N-[4-(trifluoromethyl)phenyl]acetamide], the IC50 was 15.8 to 39.8 nM at system Xc^− [1] and 39.8 to 100 nM on system Xc^− [2].

In the case of `Cc1cc2c(c(F)n1)-c1ccnnc1CC(=O)N2CC(=O)Nc1ccc(C(F)(F)F)cc1` [#110, 2-(3-fluoro-5-methyl-9-oxo-4,8,12,13-tetrazatricyclo[9.4.0.0^2,7]pentadeca-1(11),2,4,6,12,14-hexaen-8-yl)-N-[4-(trifluoromethyl)phenyl]acetamide], the IC50 is 39.8 to 100 nM on system Xc^− [1] and 100 to 501 nM at system Xc^− [2].

In the case of `O=C(CN1C(=O)Cc2ccccc2-c2ncc(F)cc21)Nc1ccc(C(F)(F)F)cc1` [#16, 2-(3-fluoro-6-oxo-7H-pyrido[3,2-d] [3]benzazepin-5-yl)-N-[4-(trifluoro-methyl)phenyl] acetamide], the IC50 on system Xc^− [1] and at system Xc^− [2] was 100 to 501 nM in each case.

For the origin of these results see patent US20260217708A1, “FUSED BENZAZEPINE DERIVATIVES FOR USE IN THE TREATMENT OF CANCER AND EPILEPSY” (UCB BIOPHARMA SRL, priority 2023, published 2026).
